Experimental data published in ChEMBL document CHEMBL1201862, “PubChem BioAssay data set” (2004).
Active and inactive are the calls of the source.

Assays:
[1] = test system: H9c2; test: cells; assay type: functional, cell-based; conditions: Rattus norvegicus, H9c2, Myocardium;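 further: confirmatory concentration-response retest of ultra-high-throughput screening hits for modulation of myocardial damage; cell death induced by hydrogen peroxide oxidative stress; compound pretreatment for 60 min then peroxide exposure for 2 h; potency is for protecting the cells against peroxide damage rather than for killing them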
[2] = molecular target: T1, Galanin receptor type 3 (Homo sapiens, UniProt O60755); test: Fluorescence-based cell-based primary high throughput dose response assay to identify antagonists of the Galanin Receptor 3 (GalR3).; assay type: functional
T1 sequence (O60755 whole entry): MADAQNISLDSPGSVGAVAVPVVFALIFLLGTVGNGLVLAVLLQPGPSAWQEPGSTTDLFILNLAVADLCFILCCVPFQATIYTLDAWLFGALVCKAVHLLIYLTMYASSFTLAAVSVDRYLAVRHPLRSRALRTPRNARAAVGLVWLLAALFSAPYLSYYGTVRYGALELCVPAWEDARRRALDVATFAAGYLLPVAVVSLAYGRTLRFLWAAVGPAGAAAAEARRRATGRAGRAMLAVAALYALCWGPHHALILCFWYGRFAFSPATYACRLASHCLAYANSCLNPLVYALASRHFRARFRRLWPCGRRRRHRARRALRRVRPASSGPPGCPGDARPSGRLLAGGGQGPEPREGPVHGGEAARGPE

[3] = cells; assay type: functional, cell-based; conditions: HEK-CNG
[4] = cytotoxicity in HEK-293T cells, dose response, cytotoxicity control for TCR NF-kB inhibitor project, luminescence, T-cell screen hits (AID 489026); assay type: functional, cell-based;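 further: cells exposed to compound about 14 hours before the viability readout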
[5] = Vero cell cytotoxicity, dose response, cytotoxicity control for Vif-APOBEC3G degradation inhibitor project, Vero cells (AID 1117358); assay type: functional; conditions: Human immunodeficiency virus 1, Vero
[6] = molecular target: Paired box protein Pax-8 (Homo sapiens, UniProt Q06710); test: inhibitors of PAX8-driven TPO luciferase reporter, dose response, RMG-I cells, cherry-pick (AID 687027); assay type: functional, cell-based;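 further: luciferase reporter driven by Pax8 target thyroperoxidase promoter measured by SteadyGlo luminescence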
[7] = NIH:OVCAR-3 ovarian cancer cell cytotoxicity, dose response, PAX8 inhibitor project, plate reader, dry powder samples (AID 743044); assay type: functional, cell-based
[8] = IGROV1 ovarian cancer cell cytotoxicity, dose response, PAX8 inhibitor project, plate reader, dry powder samples (AID 743043); assay type: functional, cell-based; conditions: IGROV-1
[9] = HEp-2 cell cytotoxicity, dose response, cytotoxicity control for RSV inhibitor project, HTS (AID 2410); assay type: functional; conditions: human respiratory syncytial virus
[10] = molecular target: T2, fMet-Leu-Phe receptor (Homo sapiens, UniProt P21462); test: FPR ligands, dose response (AID 519); assay type: functional
T2 sequence (P21462 whole entry): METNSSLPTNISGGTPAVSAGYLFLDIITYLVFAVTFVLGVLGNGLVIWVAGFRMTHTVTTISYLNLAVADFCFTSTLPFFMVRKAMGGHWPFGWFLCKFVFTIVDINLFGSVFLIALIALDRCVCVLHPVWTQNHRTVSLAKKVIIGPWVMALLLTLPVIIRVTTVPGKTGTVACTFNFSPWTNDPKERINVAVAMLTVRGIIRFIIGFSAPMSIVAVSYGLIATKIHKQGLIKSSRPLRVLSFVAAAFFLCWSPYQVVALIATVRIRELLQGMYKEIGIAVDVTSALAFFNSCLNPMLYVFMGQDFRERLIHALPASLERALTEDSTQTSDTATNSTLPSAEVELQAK

[11] = cells; assay type: functional, cell-based
[12] = molecular target: T3, Trace amine-associated receptor 1 (Homo sapiens, UniProt Q96RJ0); test: Fluorescence-based cell-based high throughput dose response assay to identify agonists of the human trace amine associated receptor 1 (TAAR1).; assay type: functional
T3 sequence (Q96RJ0 whole entry): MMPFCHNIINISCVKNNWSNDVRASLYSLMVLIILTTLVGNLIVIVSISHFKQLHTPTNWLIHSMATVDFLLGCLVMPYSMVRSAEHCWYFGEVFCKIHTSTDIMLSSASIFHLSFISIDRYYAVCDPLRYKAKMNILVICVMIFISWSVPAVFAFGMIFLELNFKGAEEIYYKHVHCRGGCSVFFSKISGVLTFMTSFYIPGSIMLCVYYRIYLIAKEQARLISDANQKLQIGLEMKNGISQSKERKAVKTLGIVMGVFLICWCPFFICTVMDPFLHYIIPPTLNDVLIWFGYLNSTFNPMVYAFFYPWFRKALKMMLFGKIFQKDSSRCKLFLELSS

[13] = molecular target: T3, Trace amine-associated receptor 1; test: Counterscreen for agonists of the human trace amine associated receptor 1 (hTAAR1): Fluorescence-based cell-based high throughput dose response assay to identify hTAAR1 agonist that also desensitize TAAR1 receptor response.; assay type: functional
[14] = cells; assay type: functional, cell-based; remark: listed apart in the source
[15] = inhibitors of HIV Env-driven cell fusion, dose response, cherry-pick (AID 652057); assay type: functional, cell-based
[16] = ZM109 Env clade C HIV-1 fusion inhibitors, dose response, HeLa effector, CEM target cells, luciferase, cherry-pick (AID 652058); assay type: functional, cell-based
[17] = off-target signal loss in HeLa-CEM21 co-culture – HeLa F-luc CTL cells, cherry-picked, counter-screen for HIV-1 Env fusion inhibitor project, dose response (AID 652040); assay type: functional, cell-based;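 further: potency for signal decrease marking cytotoxic or nonspecific inhibition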
[18] = inhibitors of clade B AD8 Env fusion, dose response, cell-based, cherry-pick (AID 652062); assay type: functional;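 further: luciferase signal from cell-cell fusion driven by HIV-1 clade B AD8 Env; potency is for inhibitors of fusion seen as a drop in luminescence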
[19] = molecular target: Disintegrin and metalloproteinase domain-containing protein 17 (Homo sapiens, UniProt P78536); test: exosite inhibitors of ADAM17, dose response, biochemical (AID 743260)
[20] = ADAM10 protease inhibitors, dose response, selectivity assay for ADAM17 exosite inhibitor project, biochemical, FRET peptide substrate, recombinant human ADAM10 (AID 743259);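 further: ADAM10 enzyme cleaving a FRET peptide substrate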
[21] = A549 cell cytotoxicity, dose response, cytotoxicity control, plate reader, cherry-pick, antagonist series (AID 743412); assay type: functional, cell-based
[22] = HepG2 cell cytotoxicity, dose response, cytotoxicity control, plate reader, cherry-pick, antagonist series (AID 743416); assay type: functional, cell-based
[23] = MC4R antagonists, dose response, counter-screen for LGR2 antagonist project, cell-based, plate reader, cherry pick (AID 743444); assay type: functional;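 further: transfected HEK 293 cells stimulated with alpha-MSH peptide; potency of inhibitors of the alpha-MSH evoked signal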

Sequence of Disintegrin and metalloproteinase domain-containing protein 17 (P78536 whole entry, the tested form may be a part): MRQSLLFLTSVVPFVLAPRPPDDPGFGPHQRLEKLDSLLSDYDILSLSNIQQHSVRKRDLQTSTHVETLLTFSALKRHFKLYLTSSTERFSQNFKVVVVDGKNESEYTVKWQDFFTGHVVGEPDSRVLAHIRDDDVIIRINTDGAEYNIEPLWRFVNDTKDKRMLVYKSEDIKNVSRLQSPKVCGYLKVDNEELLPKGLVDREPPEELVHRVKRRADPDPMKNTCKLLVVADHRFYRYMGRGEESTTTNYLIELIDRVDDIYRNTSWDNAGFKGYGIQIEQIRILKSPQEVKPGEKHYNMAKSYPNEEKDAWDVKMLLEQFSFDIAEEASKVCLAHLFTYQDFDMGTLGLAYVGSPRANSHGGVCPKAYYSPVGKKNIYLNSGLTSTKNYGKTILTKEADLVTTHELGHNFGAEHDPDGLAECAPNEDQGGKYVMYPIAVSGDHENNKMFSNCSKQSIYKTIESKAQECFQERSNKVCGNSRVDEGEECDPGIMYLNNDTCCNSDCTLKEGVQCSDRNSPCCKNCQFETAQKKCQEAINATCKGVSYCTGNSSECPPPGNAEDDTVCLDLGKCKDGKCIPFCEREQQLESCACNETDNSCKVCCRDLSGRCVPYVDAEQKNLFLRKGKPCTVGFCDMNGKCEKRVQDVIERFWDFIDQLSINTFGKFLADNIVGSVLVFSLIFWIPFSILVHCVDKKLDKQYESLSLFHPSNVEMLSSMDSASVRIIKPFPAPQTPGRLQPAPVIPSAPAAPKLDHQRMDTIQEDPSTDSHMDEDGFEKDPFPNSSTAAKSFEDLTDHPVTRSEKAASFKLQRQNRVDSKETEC
Sequence of Paired box protein Pax-8 (Q06710 whole entry): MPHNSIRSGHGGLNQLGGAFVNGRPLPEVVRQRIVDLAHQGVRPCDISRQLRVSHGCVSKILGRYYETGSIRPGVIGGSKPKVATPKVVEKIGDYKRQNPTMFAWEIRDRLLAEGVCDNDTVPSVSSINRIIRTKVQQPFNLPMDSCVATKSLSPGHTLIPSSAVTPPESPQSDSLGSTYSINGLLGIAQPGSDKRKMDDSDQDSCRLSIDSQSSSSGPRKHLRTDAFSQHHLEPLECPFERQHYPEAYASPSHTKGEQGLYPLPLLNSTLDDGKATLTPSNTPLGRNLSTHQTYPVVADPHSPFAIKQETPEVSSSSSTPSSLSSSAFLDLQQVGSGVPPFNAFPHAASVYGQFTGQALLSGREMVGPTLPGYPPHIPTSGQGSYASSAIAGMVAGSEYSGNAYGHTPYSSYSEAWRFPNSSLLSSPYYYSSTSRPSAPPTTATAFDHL

In the case of COc1cccc(Cn2nc(C(=O)O)c3ccccc3c2=O)c1, the IC50 [1] is reported as > 79 µM (inactive), the IC50 [2] is reported as > 29.9 µM (inactive) and the EC50 [3] is reported as > 29.9 µM (inactive).

In the case of COc1ccc(-n2nnnc2-c2ccccc2)cc1, the IC50 [4] is reported as > 80 µM (inactive) and the CC50 [5] is reported as > 40 µM (active).

With COc1cccc(S(=O)(=O)Nc2ccc3c(c2)[C@@H]2C[C@@H](CC(=O)NCc4ccc(Cl)cc4)O[C@@H](CO)[C@@H]2O3)c1 the AC50 [6] was 3.36 µM (active), the AC50 [7] was 25.9 µM (active) and the AC50 [8] was 60.3 µM (active).

For CN1C(=O)CSc2ccc(NC(=O)NCc3cccnc3)cc21, the CC50 [5] was > 40 µM (active).

For Cc1ccc(NC(=O)C2CCCN2S(=O)(=O)c2cccc3cccnc23)cc1F (stereo not given), the CC50 [9] was 39.4 µM (active) and the Ki [10] was > 66.7 µM (inactive).

With Cc1cc(N/N=C/c2ccccc2O)nc(N2CCOCC2)n1 the IC50 [11] was > 29.9 µM (inactive), the EC50 [12] was > 29.9 µM (inactive) and the IC50 [13] was 2.52 µM (active). For the same molecule, the EC50 [14] was > 29.9 µM (inactive).

In the case of COCCN(C(=O)COC(=O)C12CC3CC(CC(Cl)(C3)C1)C2)c1c(N)n(Cc2ccccc2)c(=O)[nH]c1=O, the AC50 [15] is reported as 4.61 µM (active), the AC50 [16] is reported as 10.2 µM (active) and the AC50 [17] is reported as 10.7 µM (active). The AC50 [18] was 1.44 µM (active).

In the case of CCCCCCCCN1C(=O)[C@@H](CC(=O)NCCc2ccccc2OC)C[C@@]2(C(=O)OC)C1=C[C@H](C1CCCC1)O[C@@H]2C, the IC50 [11] is reported as > 29.9 µM (inactive), the EC50 [12] is reported as 3.22 µM (active) and the IC50 [13] is reported as 8.54 µM (active). The EC50 [14] was > 29.9 µM (inactive).

In the case of O=C(C[n+]1ccccc1)Nc1nc2ccccc2s1, the IC50 [19] is reported as > 69.5 µM (inactive) and the IC50 [20] is reported as > 69.5 µM (inactive).

In the case of COc1cc(SC)ccc1C(=O)NCCOc1ccc(C)c(C)c1, the IC50 [19] is reported as > 69.5 µM (inactive) and the IC50 [20] is reported as 27.5 µM (inactive).

For CCCCN(Cc1ccccc1)S(=O)(=O)c1cc2c(cc1Br)CC(C)N2C(C)=O (stereo not given), the AC50 [21] was 28.8 µM (active), the AC50 [22] was 46 µM (active) and the IC50 [19] was > 69.5 µM (inactive). The AC50 [23] was 58.1 µM (active) and the IC50 [20] was 12.6 µM (inactive).

For CC(C)CCN(N=O)[C@@H](Cc1ccccc1)CN(N=O)[C@@H](Cc1ccccc1)CN(C)N=O, the AC50 [15] was 5.26 µM (active), the AC50 [16] was 6.6 µM (active) and the AC50 [17] was 34.7 µM (active). The AC50 [18] was 5.64 µM (active).

With NC(Cc1ccccc1)c1csc(Nc2ccc(C(=O)NCCO)cc2)n1 (stereo not given) the IC50 [11] was > 29.9 µM (inactive), the EC50 [12] was 4.32 µM (active) and the IC50 [13] was > 29.9 µM (inactive). The EC50 [14] was > 29.9 µM (inactive).

In the case of COc1ccc2nc(O)c(CN(Cc3cccs3)Cc3nnnn3Cc3ccccc3)cc2c1, the AC50 [15] is reported as 3.01 µM (active), the AC50 [16] is reported as 5.4 µM (active) and the AC50 [17] is reported as 4.44 µM (active). For the same molecule, the AC50 [18] was 4.94 µM (active).

In the case of Cc1ccc(C(=O)OC2CCS(=O)(=O)c3sccc32)cc1 (stereo not given), the CC50 [5] is reported as 32.7 µM (active).

In the case of O=C(Nc1ccccc1)Nc1ccncc1, the IC50 [11] is reported as > 29.9 µM (inactive), the EC50 [12] is reported as 1.02 µM (active) and the IC50 [13] is reported as 7.05 µM (active). For the same molecule, the EC50 [14] was > 29.9 µM (inactive).

For CC1Oc2ccccc2N(Cc2ccccc2Cl)C1=O (stereo not given), the Ki [10] was > 66.7 µM (inactive).

For COc1ccc(NS(=O)(=O)c2cc(NC(=O)c3cccs3)ccc2N2CCCC2)cc1, the IC50 [19] was > 69.5 µM (inactive) and the IC50 [20] was > 69.5 µM (inactive).

For O=C(C1=C(O)C(=O)N(c2ncccn2)C1c1ccc(Cl)cc1)c1ccco1 (stereo not given), the Ki [10] was > 66.7 µM (inactive).

In the case of COc1ccc2c(=O)c(N3C(=O)c4ccccc4C3=O)c(C)oc2c1, the Ki [10] is reported as > 66.7 µM (inactive).

In the case of O=c1c2ccccc2c(-c2ccccc2)nn1-c1cc(Cl)ccc1[N+](=O)[O-], the CC50 [5] is reported as > 40 µM (active).
